The values below come from paper PMC6359144 (International Journal of Molecular Sciences, 2019).

In one assay the target is T1, recombinant human HDAC1 (Homo sapiens, UniProt Q13547).
T1 construct: purchased Cayman Chemicals
The experiment in a line: HDAC1 inhibitor screening assay (fluorometric). It counts as biochemical. As to conditions: recombinant human HDAC1, mean ± SD of two experiments; read-out: HDAC inhibition IC50, HDAC1. The method, then:
The HDAC inhibitory potential of the novel compounds was determined by utilizing the deacetylase activity of recombinant human HDAC1 (HDAC1 Inhibitor Screening Assay Kit; Cayman Chemicals) or HDAC6 (HDAC6 Inhibitor Screening Kit (Fluorometric); Biovision) towards the corresponding synthetic acetylated-peptide substrates resulting in the release of a fluorescent product. The assays were performed according to manufacturer’s description of the in commercially available assay kits. […] The IC50 values were derived from dose-response curves and are expressed as the means ± SD of two independent experiments.

Assay [1] has as its system non-malignant HDFa dermal fibroblasts. The experiment in a line: MTT assay, HDFa dermal fibroblasts. It counts as cell-based. Conditions: Homo sapiens, read-out: IC50 HDFa (72 h). Here is the method:
(§1) HT-29 (ACC-299), HCT-116 (ACC-581) and DLD-1 (ACC-278) colon carcinoma, MCF-7 (ACC-115) breast carcinoma, KB-V1 (ACC-149), 518A2 (Department of Radiotherapy and Radiobiology, University Hospital Vienna) melanoma and Ea.Hy926 (ATCC no. CRL-2922) HUVEC derived endothelial hybrid cells line were grown in Dulbecco’s Modified Eagle Medium (DMEM; Biochrom), high glucose supplemented with 10% (v/v) fetal bovine serum (FBS; Biochrom.) and 1% (v/v) Antibiotic-Antimycotic solution (anti-anti; Thermo Scientific). HDFa human dermal fibroblasts (ATCC: PCS-201-012™) were grown in DMEM supplemented with 10% FBS, 1% anti-anti and 2 mM glutamine. The cells were incubated at 37 °C, 5% CO2, 95% humidified atmosphere. By repeated addition of topotecan or vinblastine at the maximum tolerated dose to the cell medium of MCF-7 and KB-V1 cells, the cells were rendered multidrug-resistant, indicated as MCF-7^Topo and KB-V1^Vbl, respectively. They were serially passaged following trypsinization by using 0.05% trypsin/0.02% EDTA (Biochrom). Mycoplasma contamination was routinely monitored, and only mycoplasma–free cultures were used.
MTT [3-(4,5-dimethylthiazol-2-yl)-2,5-diphenyltetrazolium bromide] (ABCR) was used to determine the cytotoxicity of test compounds as previously described. Briefly, HDFa human dermal fibroblasts and Ea.Hy926 endothelial hybrid cells (both 1 × 10^5 cells/mL, 100 µL/well), 518A2 melanoma, KB-V1^Vbl cervix carcinoma, MCF-7^Topo breast carcinoma, HT-29, DLD-1 and HCT-116 colon carcinoma (all 5 × 10^4 cells/mL, 100 µL/well) were grown in 96-well culture plates for 24 h. Then, various concentrations of the test compounds were added and the cells were incubated for 24-72 h at 37 °C. […] Finally, the absorbance at λ = 570 nm (formazan) and 630 nm (background) was measured using a microplate reader (Tecan F200). All experiments were carried out in quadruplicate and the percentage of viable cells was calculated as the mean ± SD with controls set to 100%. […]

A further assay has as its system 518A2 melanoma cells. The experiment in a line: DCFH-DA assay of intracellular ROS. It counts as cell-based, human. Conditions: 10 µM, 1 h, vehicle treated controls set to 100%. The text has this: Gosch 2,3, Alexandra […] Rothemund 1, Thomas Mueller 4, […] Schobert 1, Bernhard Biersack 1,*, Andrea Volkamer 3 and Michael […] 2,* 1 Department of Chemistry, University of […], Germany; florian1.schmitt@uni-[…].rothemund@uni -[…].schobert@uni - bayreuth.de (R.S.) 2 Institute of Physiology, Charité-Universitätsmedizin Berlin, Charitéplatz 1, 10117 Berlin, Germany; […].), alexandra.[…].) 3 In Silico Toxicology Group, Institute of Physiology, Charité-Universitätsmedizin Berlin, Charitéplatz 1, 10117 Berlin, Germany; […] 4 Internal Medicine IV, University Hospital […], Germany; thomas.mueller@medizin.uni-[…] * Correspondence: bernhard.biersack@yahoo.com (B.B.); michael.hoepfner@charite.de (M.H.); Tel.: +49-921- 55- 2673 (B.B.); Tel: +49-030-450-528 -515(M.H.); Table of content Material and Methods ... S1 DCFH-DA assay. ... S1 Immuofluorescence staining of acetylated alpha-tubulin ... S2 Wound healing assay ... S2 Results ... S3 Effect on the microtubule cytoskeleton ... S3 Effect on the intracellular ROS levels ... S3 Effect on the acetylation of alpha-tubulin ... S3 Effect on migratory activity ... S5 Effect on mouse weight ... S6 Graphs of MTT assays ... S7 S1 Material and Methods DCFH-DA assay. The assay was performed as previously described. […] 100 μL/well) were grown in a black 96-well plate for 24 h. Then, the cell medium was exchanged for […] After […] and vehicle (DMSO) in serum-free DMEM for 1 h at 37 °C. Then, the cells were washed twice with 100 μL PBS and subsequently placed in a microplate reader (TECAN). The DCF-fluorescence (λex = 485 nm, λem = 535 nm) as a measure of ROS production was determined and that of vehicle treated controls set to 100%. Values exceeding 100% indicate a drug-induced ROS generation. The values of six independent assays were depicted as the means ± SD. There were no outliers and the data fulfilled variance homogeneity (Levene's test, p > 0.05).

The test system of assay [2] is p21, p27, cyclin D1 in 518A2 melanoma cells. Kind of assay: Western blot of cell cycle regulatory proteins. It counts as cell-based, human. As to conditions: 24 h; for effect on p21 expression: 4d […]–4 µM, SAHA 5 µM. Here is the method:
After harvesting and lysing of the cells, western blotting was performed as described before. For subsequent analysis, the protein-loaded membranes were incubated with antibodies directed against p21 (Abcam ab109199), p27 ([…]), cyclin D1 (Cell Signaling 29225) and GADPH (Santa Cruz sc25778) in 1:1000 dilutions. After incubation with horseradish peroxidase-coupled anti-IgG antibodies (1:10,000; Amersham), the blot was developed using the Celvin-S developer (Biostep) and the software SnapAndGo 1.8.1.
(In general: In western blotting, separated proteins are transferred to a membrane and probed.)

For assay [3], the system named is HCT-116 colon carcinoma cells. The experiment in a line: MTT assay, HCT-116 colon carcinoma cells. It counts as cell-based. Conditions: Homo sapiens, HCT-116, read-out: IC50 HCT-116 (72 h). Here is the method:
as §1
MTT [3-(4,5-dimethylthiazol-2-yl)-2,5-diphenyltetrazolium bromide] (ABCR) was used to determine the cytotoxicity of test compounds as previously described. Briefly, HDFa human dermal fibroblasts and Ea.Hy926 endothelial hybrid cells (both 1 × 10^5 cells/mL, 100 µL/well), 518A2 melanoma, KB-V1^Vbl cervix carcinoma, MCF-7^Topo breast carcinoma, HT-29, DLD-1 and HCT-116 colon carcinoma (all 5 × 10^4 cells/mL, 100 µL/well) were grown in 96-well culture plates for 24 h. Then, various concentrations of the test compounds were added and the cells were incubated for 24-72 h at 37 °C. After adding 12.5 µL of a 0.5% MTT solution in PBS (final concentration 0.05%) to cell medium, microplates were incubated for 2 h and subsequently swiftly turned to discard the medium. The precipitate of formazan crystals was then dissolved in a 10% solution of SDS in DMSO containing 0.6% acetic acid. To ensure complete dissolution of formazan, microplates were incubated for at least 4 h at 37 °C. Finally, the absorbance at λ = 570 nm (formazan) and 630 nm (background) was measured using a microplate reader (Tecan F200). All experiments were carried out in quadruplicate and the percentage of viable cells was calculated as the mean ± SD with controls set to 100%. Selected graphs of MTT assays can be found in the Supporting Information (Figure S8).

One may read the IC50 as the concentration that gives 50% inhibition.

Bounds are passed on as bounds.

T1 sequence (Q13547 whole entry): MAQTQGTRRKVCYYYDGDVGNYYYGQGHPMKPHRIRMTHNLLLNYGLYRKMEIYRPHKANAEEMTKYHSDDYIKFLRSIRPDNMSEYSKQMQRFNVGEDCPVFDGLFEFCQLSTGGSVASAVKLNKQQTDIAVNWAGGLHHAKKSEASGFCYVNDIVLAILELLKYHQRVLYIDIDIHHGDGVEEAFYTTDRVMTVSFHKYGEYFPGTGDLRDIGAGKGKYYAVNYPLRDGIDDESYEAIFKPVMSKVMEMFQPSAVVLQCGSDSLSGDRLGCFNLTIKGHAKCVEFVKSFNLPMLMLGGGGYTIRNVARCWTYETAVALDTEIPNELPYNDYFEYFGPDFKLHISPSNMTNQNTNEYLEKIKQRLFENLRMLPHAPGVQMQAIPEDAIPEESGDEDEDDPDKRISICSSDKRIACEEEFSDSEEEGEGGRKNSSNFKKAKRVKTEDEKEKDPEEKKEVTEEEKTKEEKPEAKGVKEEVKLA

With `COc1ccc(-c2ocnc2-c2cc(Br)c(OC)c(OC)c2)cc1OCCCC(=O)NO` [4d, N-Hydroxy-4-[1-methoxy-4-(4’-(3’’-bromo-4’’,5’’-dimethoxyphenyl)oxazol-5’-yl)-2-phenoxy]butanamide], the IC50 on recombinant human HDAC1 is 4 ± 0.1 µM; in assay [1] it was 23.9 ± 1.6 µM; in assay [3], 0.13 ± 0.01 µM. For the same molecule, the “intracellular ROS level” value in the assay with 518A2 melanoma cells is given as 241% ± 17. Further, the “effect on p21 expression” value in assay [2] is “distinctly suppressed p21 expression”. Besides, the “effect on cyclin D1 level” value in assay [2] (4d 0.15–4 µM) is “increased the level of cyclin D1”.

On to `COc1ccc(-c2ocnc2-c2cc(Br)c(OC)c(OC)c2)cc1OCCCCC(=O)NO` [4e, N-Hydroxy-5-[1-methoxy-4-(4’-(3’’-bromo-4’’,5’’-dimethoxyphenyl)oxazol-5’-yl)-2-phenoxy]pentanamide], for which the figures for the IC50 (on recombinant human HDAC1; in assay [1]; in assay [3]) were 3.8 ± 0.1 µM, above 100 µM and 2.2 ± 0.3 µM, respectively. The “intracellular ROS level” value in the assay with 518A2 melanoma cells worked out at 230 ± 31%.

For the molecule `COc1ccc(-c2ocnc2-c2cc(Br)c(OC)c(OC)c2)cc1OCCCCCC(=O)NO` [4f, N-Hydroxy-6-[1-methoxy-4-(4’-(3’’-bromo-4’’,5’’-dimethoxyphenyl)oxazol-5’-yl)-2-phenoxy]hexanamide], the values for the IC50 (on recombinant human HDAC1; in assay [1]; in assay [3]) were 0.49 ± 0.05 µM, above 50 µM and 6.3 ± 0.4 µM, respectively. Besides, the “intracellular ROS level” value in the assay with 518A2 melanoma cells is given as 198 ± 24%. Moreover, in assay [2], the “effect on p21 expression” value was “upregulated p21 expression in a dose-dependent way”.
